Measured values taken from patent publication US20230405028A1 (priority 2020, published 2023).
Where two headings read alike, the source gives them in different places.

What was measured:
[1] = system: COX-2; assay: COX-2 in HSIEC cells treated with TNF-α/IFN-γ (western blot, densitometry); type: cell-based, human; settings: single agent, escalating doses
Experimental: Cell Culture: Human primary small intestinal epithelial cells (HSIEC), purchased from Cell Biologics were cultured in Epithelial Cell Medium/w Kit. HSIEC cells were incubated at 37° C. in a humidified atmosphere of 5% CO2. HSIEC cells were treated with mycoplasma removal reagent BM-Cyclin (Roche) to ensure mycoplasma negative before treatment.
To do so, COX-2, an enzyme which mediates the bioconversion of arachidonic acid to inflammatory prostaglandins (PGs), was measured via densitometry. GAPDH was used as a reference housekeeping marker for relative densitometry measures. […] Ethanol or DMSO was used, as indicated in the figures, as a vehicle for dilution and as a negative control showing the amount of the inflammatory marker present when inflammation was not induced.
Increasing doses of each molecule of interest, or each combination of molecules of interest, were then distributed to the HSIEC cells treated to induce inflammatory response. Inflammatory markers COX-2 and/or IL-6 were assessed at specific timepoints after induction of inflammation for protein content marker measured via western blot. GAPDH was used as a reference housekeeping marker for relative densitometry measures of protein content.

[2] = system: iNOS; assay: iNOS in HSIEC cells treated with TNF-α/IFN-γ; type: cell-based, human; settings: 5, 10, 20, 40 μM
[3] = system: Human primary small intestinal epithelial cells (HSIEC); settings: for concentration above which inhibitory effect / significant toxicity (MTT): human
[4] = system: TRPA1; settings: TRPA1 overexpressing CHO cells and trigeminal neurons; cited from earlier work
[5] = target: 5HT2A (Homo sapiens, UniProt P28223); settings: printed with a question mark in the Average Dose column; cited from earlier work
[6] = system: anandamide levels; settings: chronic, but not acute, administration of 150 mg/kg (Smalheiser, 2019); cited from earlier work
[7] = system: mice; settings: intraplantar injections (Bandell, 2004); cited from earlier work
[8] = system: rats; settings: rats (Iwasaki, 2008); cited from earlier work

5HT2A, sequence (P28223 whole entry): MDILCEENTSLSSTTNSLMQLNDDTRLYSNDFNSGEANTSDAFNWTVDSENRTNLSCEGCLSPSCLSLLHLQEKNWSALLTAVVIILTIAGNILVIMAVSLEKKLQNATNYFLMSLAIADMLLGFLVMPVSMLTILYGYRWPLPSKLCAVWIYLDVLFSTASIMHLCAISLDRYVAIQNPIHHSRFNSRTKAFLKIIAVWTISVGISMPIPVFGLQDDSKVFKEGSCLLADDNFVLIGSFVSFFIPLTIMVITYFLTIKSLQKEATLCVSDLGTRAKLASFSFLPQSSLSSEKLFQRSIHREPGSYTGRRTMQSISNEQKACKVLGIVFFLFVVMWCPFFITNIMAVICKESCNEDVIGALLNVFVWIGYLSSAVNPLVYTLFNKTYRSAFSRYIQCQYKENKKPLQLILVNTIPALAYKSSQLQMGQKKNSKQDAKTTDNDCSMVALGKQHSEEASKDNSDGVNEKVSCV

CC(=O)Oc1cccc2[nH]cc(CCN(C)C)c12 [4-ACO-DMT, 3-[2-(dimethylamino)ethyl]-4-acetoxyindole]
doses reducing COX-2 to the greatest extent [1]: 40 µM
dose reducing iNOS to the greatest extent [2]: 10 µM
doses resulting in reduction of iNOS [2]: all doses
effect on cell growth / cellular metabolic activity (MTT, words) [3]: increase growth of cells

O=C(/C=C/C=C/c1ccc2c(c1)OCO2)N1CCCCC1 [piperine]
doses reducing COX-2 to the greatest extent [1]: 2.5 µM
effect on cell growth / cellular metabolic activity (MTT, words) [3]: could only be studied at very low dose
Cellular Metabolic Activity ([3]; 5 μM, 24 h): 0.077
Cellular Metabolic Activity ([3]; 5 μM, 48 h): 0.170
Cellular Metabolic Activity ([3]; 5 μM, 72 h): 0.278
Cellular Metabolic Activity ([3]; 5 μM, 96 h): 0.517
Cellular Metabolic Activity ([3]; 5 μM, time 0): 0.035
Cellular Metabolic Activity ([3]; 10 μM, 24 h): 0.073
Cellular Metabolic Activity ([3]; 10 μM, 48 h): 0.183
Cellular Metabolic Activity ([3]; 10 μM, 72 h): 0.271
Cellular Metabolic Activity ([3]; 10 μM, 96 h): 0.438
Cellular Metabolic Activity ([3]; 10 μM, time 0): 0.026
Cellular Metabolic Activity ([3]; 20 μM, 24 h): 0.075
Cellular Metabolic Activity ([3]; 20 μM, 48 h): 0.166
Cellular Metabolic Activity ([3]; 20 μM, 72 h): 0.268
Cellular Metabolic Activity ([3]; 20 μM, 96 h): 0.445
Cellular Metabolic Activity ([3]; 20 μM, time 0): 0.022
Cellular Metabolic Activity ([3]; 40 μM, 24 h): 0.069
Cellular Metabolic Activity ([3]; 40 μM, 48 h): 0.169
Cellular Metabolic Activity ([3]; 40 μM, 72 h): 0.226
Cellular Metabolic Activity ([3]; 40 μM, 96 h): 0.423
Cellular Metabolic Activity ([3]; 40 μM, time 0): 0.025
Cellular Metabolic Activity ([3]; 80 μM, 24 h): 0.068
Cellular Metabolic Activity ([3]; 80 μM, 48 h): 0.171
Cellular Metabolic Activity ([3]; 80 μM, 72 h): 0.224
Cellular Metabolic Activity ([3]; 80 μM, 96 h): 0.391
Cellular Metabolic Activity ([3]; 80 μM, time 0): 0.026
Cellular Metabolic Activity ([3]; 100 μM, 24 h): 0.071
Cellular Metabolic Activity ([3]; 100 μM, 48 h): 0.175
Cellular Metabolic Activity ([3]; 100 μM, 72 h): 0.248
Cellular Metabolic Activity ([3]; 100 μM, 96 h): 0.410
Cellular Metabolic Activity ([3]; 100 μM, time 0): 0.030
Cellular Metabolic Activity ([3]; 200 μM, 24 h): 0.071
Cellular Metabolic Activity ([3]; 200 μM, 48 h): 0.171
Cellular Metabolic Activity ([3]; 200 μM, 72 h): 0.243
Cellular Metabolic Activity ([3]; 200 μM, 96 h): 0.426
Cellular Metabolic Activity ([3]; 200 μM, time 0): 0.027
Cellular Metabolic Activity ([3]; 400 μM, 24 h): 0.068
Cellular Metabolic Activity ([3]; 400 μM, 48 h): 0.191
Cellular Metabolic Activity ([3]; 400 μM, 72 h): 0.187
Cellular Metabolic Activity ([3]; 400 μM, 96 h): 0.255
Cellular Metabolic Activity ([3]; 400 μM, time 0): 0.031

O=C(c1ccc(F)cc1)C1CCN(CCn2c(=O)[nH]c3ccccc3c2=O)CC1 [ketanserin, reference compound]
doses resulting in reduction of COX-2 [1]: none of the doses
concentration above which inhibitory effect / significant toxicity (MTT) [3]: above 20 μM

CCCCCc1cc(O)c2c(c1)OC(C)(C)[C@@H]1CCC(C)=C[C@@H]21 [THC, delta-9-tetrahydrocannabinol]
TRPA1 activation [4]: activate TRPA1

CCC(CC)NC(=O)[C@@H]1C=C2c3cccc4[nH]cc(c34)C[C@H]2N(C)C1 [LSP, D-lysergic acid 3-pentyl amide]
potency of LSD [5]: 75% potency % potency of LSD

CCCCCc1cc(O)c2c(c1)OC(C)(C)c1ccc(C)cc1-2 [cannabinol]
TRPA1 activation [4]: activate TRPA1

COc1cc(/C=C/C(=O)CC(=O)/C=C/c2ccc(O)c(OC)c2)ccc1O [curcumin, (1E,6E)-1,7-bis(4-hydroxy-3-methoxyphenyl) hepta-1,6-diene-3,5-dione]
Cellular Metabolic Activity ([3]; 1 μM, 24 h): 0.086
Cellular Metabolic Activity ([3]; 1 μM, 48 h): 0.184
Cellular Metabolic Activity ([3]; 1 μM, 72 h): 0.375
Cellular Metabolic Activity ([3]; 1 μM, 96 h): 0.611
Cellular Metabolic Activity ([3]; 1 μM, time 0): 0.040
Cellular Metabolic Activity ([3]; 5 μM, 24 h): 0.079
Cellular Metabolic Activity ([3]; 5 μM, 48 h): 0.148
Cellular Metabolic Activity ([3]; 5 μM, 72 h): 0.299
Cellular Metabolic Activity ([3]; 5 μM, 96 h): 0.595
Cellular Metabolic Activity ([3]; 5 μM, time 0): 0.036
Cellular Metabolic Activity ([3]; 10 μM, 24 h): 0.070
Cellular Metabolic Activity ([3]; 10 μM, 48 h): 0.115
Cellular Metabolic Activity ([3]; 10 μM, 72 h): 0.215
Cellular Metabolic Activity ([3]; 10 μM, 96 h): 0.466
Cellular Metabolic Activity ([3]; 10 μM, time 0): 0.036
Cellular Metabolic Activity ([3]; 20 μM, 24 h): 0.059
Cellular Metabolic Activity ([3]; 20 μM, 48 h): 0.057
Cellular Metabolic Activity ([3]; 20 μM, 72 h): 0.060
Cellular Metabolic Activity ([3]; 20 μM, 96 h): 0.038
Cellular Metabolic Activity ([3]; 20 μM, time 0): 0.040
Cellular Metabolic Activity ([3]; 40 μM, 24 h): 0.038
Cellular Metabolic Activity ([3]; 40 μM, 48 h): 0.026
Cellular Metabolic Activity ([3]; 40 μM, 72 h): 0.014
Cellular Metabolic Activity ([3]; 40 μM, 96 h): 0.00
Cellular Metabolic Activity ([3]; 40 μM, time 0): 0.039
Cellular Metabolic Activity ([3]; 80 μM, 24 h): 0.042
Cellular Metabolic Activity ([3]; 80 μM, 48 h): 0.019
Cellular Metabolic Activity ([3]; 80 μM, 72 h): 0.018
Cellular Metabolic Activity ([3]; 80 μM, 96 h): 0.005
Cellular Metabolic Activity ([3]; 80 μM, time 0): 0.041
anandamide levels in a variety of brain regions [6]: significantly raised

CCN(C(=O)[C@@H]1C=C2c3cccc4[nH]cc(c34)C[C@H]2N(C)C1)C1CC1 [ECPLA, D-N-ethyl-N-cyclopropyllysergamide]
potency of LSD [5]: 40% potency % potency of LSD

O=C/C=C/c1ccccc1 [cinnamaldehyde, (2E)-3-phenylprop-2-enal]
Cellular Metabolic Activity ([3]; 5 μM, 24 h): 0.183
Cellular Metabolic Activity ([3]; 5 μM, 48 h): 0.148
Cellular Metabolic Activity ([3]; 5 μM, 72 h): 0.236
Cellular Metabolic Activity ([3]; 5 μM, 96 h): 0.423
Cellular Metabolic Activity ([3]; 5 μM, time 0): 0.026
Cellular Metabolic Activity ([3]; 10 μM, 24 h): 0.166
Cellular Metabolic Activity ([3]; 10 μM, 48 h): 0.119
Cellular Metabolic Activity ([3]; 10 μM, 72 h): 0.160
Cellular Metabolic Activity ([3]; 10 μM, 96 h): 0.321
Cellular Metabolic Activity ([3]; 10 μM, time 0): 0.022
Cellular Metabolic Activity ([3]; 20 μM, 24 h): 0.169
Cellular Metabolic Activity ([3]; 20 μM, 48 h): 0.095
Cellular Metabolic Activity ([3]; 20 μM, 72 h): 0.105
Cellular Metabolic Activity ([3]; 20 μM, 96 h): 0.152
Cellular Metabolic Activity ([3]; 20 μM, time 0): 0.025
Cellular Metabolic Activity ([3]; 40 μM, 24 h): 0.171
Cellular Metabolic Activity ([3]; 40 μM, 48 h): 0.049
Cellular Metabolic Activity ([3]; 40 μM, 72 h): 0.018
Cellular Metabolic Activity ([3]; 40 μM, 96 h): 0.015
Cellular Metabolic Activity ([3]; 40 μM, time 0): 0.026
Cellular Metabolic Activity ([3]; 80 μM, 24 h): 0.175
Cellular Metabolic Activity ([3]; 80 μM, 48 h): 0.021
Cellular Metabolic Activity ([3]; 80 μM, 72 h): 0
Cellular Metabolic Activity ([3]; 80 μM, time 0): 0.030
Cellular Metabolic Activity ([3]; 100 μM, 24 h): 0.171
Cellular Metabolic Activity ([3]; 100 μM, 48 h): 0.016
Cellular Metabolic Activity ([3]; 100 μM, time 0): 0.027
Cellular Metabolic Activity ([3]; 200 μM, 24 h): 0.191
Cellular Metabolic Activity ([3]; 200 μM, 48 h): 0.009
Cellular Metabolic Activity ([3]; 200 μM, time 0): 0.031
concentration above which inhibitory effect / significant toxicity (MTT) [3]: over 10 μM
nociceptive behavior [7]: cause nociceptive behavior
adrenaline secretions [8]: increasing adrenaline secretions
